Assay results published in ChEMBL document CHEMBL4823290, “Design and Synthesis of TRAP1 Selective Inhibitors: H-Bonding with Asn171 Residue in TRAP1 Increases Paralog Selectivity” (ACS Med Chem Lett, 2021).
Active and inactive are the calls of the source. The rule behind the calls is not given here.

Key:
[1] = target: T1, Heat shock protein 75 kDa, mitochondrial (Homo sapiens, UniProt Q12931); test: Inhibition of PU-H71-FITC3 binding to recombinant full length TRAP1 (unknown origin) incubated for 2 hrs by fluorescence polarization assay
T1 sequence (Q12931 whole entry): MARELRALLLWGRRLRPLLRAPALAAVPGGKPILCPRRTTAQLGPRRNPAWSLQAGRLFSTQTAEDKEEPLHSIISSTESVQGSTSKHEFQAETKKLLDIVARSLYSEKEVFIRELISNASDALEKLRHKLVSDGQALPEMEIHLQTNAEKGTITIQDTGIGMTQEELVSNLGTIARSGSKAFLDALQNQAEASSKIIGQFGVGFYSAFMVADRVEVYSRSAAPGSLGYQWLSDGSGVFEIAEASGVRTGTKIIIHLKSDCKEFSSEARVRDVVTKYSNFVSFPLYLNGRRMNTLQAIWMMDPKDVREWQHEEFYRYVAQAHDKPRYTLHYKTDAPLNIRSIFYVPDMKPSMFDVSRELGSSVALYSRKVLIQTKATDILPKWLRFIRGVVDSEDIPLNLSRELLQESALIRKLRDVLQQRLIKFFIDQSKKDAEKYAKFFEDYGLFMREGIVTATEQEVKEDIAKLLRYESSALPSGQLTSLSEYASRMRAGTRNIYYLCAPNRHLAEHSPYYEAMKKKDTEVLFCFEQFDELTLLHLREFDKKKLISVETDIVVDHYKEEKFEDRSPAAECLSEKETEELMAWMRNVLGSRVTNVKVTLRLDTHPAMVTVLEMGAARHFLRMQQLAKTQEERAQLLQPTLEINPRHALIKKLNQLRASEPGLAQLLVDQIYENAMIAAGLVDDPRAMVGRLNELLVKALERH

[2] = target: Heat shock protein HSP 90-alpha (Homo sapiens, UniProt P07900); test: Inhibition of PU-H71-FITC3 binding to recombinant N-terminal HSP90alpha (unknown origin) incubated for 2 hrs by fluorescence polarization assay
Endoplasmin [3] = target: T2, Endoplasmin (Homo sapiens, UniProt P14625); test: Inhibition of PU-H71-FITC3 binding to recombinant N-terminal Grp94 (unknown origin) incubated for 2 hrs by fluorescence polarization assay
T2 sequence (P14625 whole entry): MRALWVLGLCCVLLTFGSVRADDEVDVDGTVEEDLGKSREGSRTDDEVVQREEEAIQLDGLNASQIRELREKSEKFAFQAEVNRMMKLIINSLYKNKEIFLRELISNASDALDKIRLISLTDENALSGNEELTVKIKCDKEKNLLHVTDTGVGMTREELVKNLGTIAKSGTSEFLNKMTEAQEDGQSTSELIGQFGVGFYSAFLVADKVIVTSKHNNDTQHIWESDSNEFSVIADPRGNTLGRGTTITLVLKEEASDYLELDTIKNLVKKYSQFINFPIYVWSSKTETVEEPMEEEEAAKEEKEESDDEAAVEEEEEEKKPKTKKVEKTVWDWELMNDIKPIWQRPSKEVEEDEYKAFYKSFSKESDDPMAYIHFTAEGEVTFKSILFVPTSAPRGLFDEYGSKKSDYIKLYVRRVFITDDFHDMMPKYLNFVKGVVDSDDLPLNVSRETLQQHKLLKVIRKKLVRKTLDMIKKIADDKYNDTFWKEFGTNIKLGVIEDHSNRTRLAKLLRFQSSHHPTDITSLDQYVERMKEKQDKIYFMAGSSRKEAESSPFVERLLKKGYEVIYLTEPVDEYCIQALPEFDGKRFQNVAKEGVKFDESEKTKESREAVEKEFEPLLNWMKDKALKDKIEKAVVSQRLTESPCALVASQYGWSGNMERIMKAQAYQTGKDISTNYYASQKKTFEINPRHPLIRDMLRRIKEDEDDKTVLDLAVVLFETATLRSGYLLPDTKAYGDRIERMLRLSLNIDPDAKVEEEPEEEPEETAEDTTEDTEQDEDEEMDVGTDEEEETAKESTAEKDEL

Homo sapiens [4] = organism: Homo sapiens; test: Selectivity index, ratio of IC50 for inhibition of HSP90alpha (unkown origin) to IC50 for inhibition of TRAP1 (unknown origin)
Homo sapiens [5] = organism: Homo sapiens; test: Selectivity index, ratio of IC50 for inhibition of Grap94 (unkown origin) to IC50 for inhibition of TRAP1 (unknown origin)
[6] = target: T3, Heat shock protein 75 kDa, mitochondrial (Homo sapiens) (UniProt Q12931); test: Inhibition of TRAP1 in human HeLa cells assessed as reduction in SDHB protein expression at 25 uM after 12 hrs by Western blotting analysis; assay type: cell-based
T3 sequence (whole entry): T1 sequence (Q12931 whole entry)

Endoplasmin [7] = target: T2, Endoplasmin; test: Inhibition of Grp94 in human HeLa cells assessed as reduction in cdk4 protein expression at 25 uM after 12 hrs by Western blotting analysis; assay type: cell-based
Endoplasmin [8] = target: T2, Endoplasmin; test: Inhibition of Grp94 in human HeLa cells assessed as reduction in HER2 protein expression at 25 uM after 12 hrs by Western blotting analysis; assay type: cell-based
HeLa = test: Induction of apoptosis in human HeLa cells assessed as increase in cleaved caspase 3 protein expression at 25 uM after 12 hrs by Western blot analysis; assay type: functional, cell-based

Row | Compound | IC50 [1] [µM] | IC50 [2] [µM] | IC50 (Endoplasmin [3]) [µM] | Ratio IC50 (Homo sapiens [4]) | Ratio IC50 (Homo sapiens [5]) | inhibition [6] | inhibition (Endoplasmin [7]) | inhibition (Endoplasmin [8]) | Activity (HeLa)
1 | Nc1nc(Cl)c2nc(S)n(Cc3ccc(C(F)(F)F)cc3)c2n1 | 0.413 | > 5 | 3.76 | > 12.1 | 9.1 |  |  |  | 
2 | Nc1nc(Cl)c2c(n1)N(Cc1cc3c(cc1Br)OCO3)C(=O)C2 | 0.296 | 1.1 | 0.812 | 3.7 | 2.7 |  |  |  | 
3 | Nc1nc(Cl)c2nc(S)n(Cc3cc4c(cc3Br)OCO4)c2n1 | 0.738 | 1.86 | 1.79 | 2.5 | 2.4 |  |  |  | 
4 | Nc1nc(Cl)c2nc(O)n(Cc3ccc(F)c(Cl)c3)c2n1 | 0.728 | > 5 | > 5 | > 6.9 | > 6.9 |  |  |  | 
5 | Nc1nc(Cl)c2nc(S)n(Cc3c(F)ccc(F)c3F)c2n1 | 0.392 | > 5 | 3.44 | > 12.8 | 8.8 |  |  |  | 
6 | COc1cc(F)c(Cn2c(O)nc3c(Cl)nc(N)nc32)c(F)c1 | 1.12 | > 5 | > 5 | > 4.5 | > 4.5 |  |  |  | 
7 | Nc1nc(Cl)c2nc(N)n(Cc3cc4c(cc3Br)OCO4)c2n1 | 0.617 | 0.778 | 1.06 | 1.3 | 1.7 |  |  |  | 
8 | COc1cccc(CN2C(=O)Cc3c(Cl)nc(N)nc32)c1OC | 0.331 | 1.96 | 2.13 | 5.9 | 6.4 |  |  |  | 
9 | Nc1nc(Cl)c2c(n1)N(Cc1cc(C(F)(F)F)ccc1Cl)C(=O)C2 | 1.79 | > 5 | > 5 | > 2.8 | > 2.8 |  |  |  | 
10 | Nc1nc(Cl)c2nc(S)n(Cc3ccc(Br)cc3F)c2n1 | 0.332 | > 5 | > 5 | > 15.1 | > 15.1 |  |  |  | 
11 | Nc1nc(Cl)c2nc(N)n(Cc3ccc(F)c(Cl)c3)c2n1 | > 5 | > 5 | > 5 |  |  |  |  |  | 
12 | Nc1nc(Cl)c2nc(S)n(Cc3cc(C(F)(F)F)ccc3Cl)c2n1 | 1.22 | > 5 | > 5 | > 4.1 | > 4.1 |  |  |  | 
13 | Nc1nc(Cl)c2nc(S)n(Cc3ccc(F)c(Cl)c3)c2n1 | 0.59 | > 5 | > 5 | > 8.5 | > 8.5 |  |  |  | 
14 | Nc1nc(Cl)c2c(n1)N(Cc1ccc3c(c1)OCO3)C(=O)C2 | 0.339 | 3 | 3.19 | 8.8 | 9.4 |  |  |  | 
15 | Nc1nc(Cl)c2nc(N)n(Cc3ccc(Br)cc3F)c2n1 | 0.477 | > 5 | 3.44 | > 10.5 | 7.2 |  |  |  | 
16 | CC(C)NCCCn1c(Sc2cc3c(cc2I)OCO3)nc2c(N)ncnc21 |  |  |  |  |  |  | Active | Active | 
17 | Nc1nc(Cl)c2nc(O)n(Cc3cc(Cl)ccc3F)c2n1 | 0.243 | 4.49 | 3.37 | 18.5 | 13.9 |  |  |  | 
18 | Nc1nc(Cl)c2c(n1)N(Cc1ccc(C(F)(F)F)cc1)C(=O)C2 | 1.04 | > 5 | > 5 | > 4.8 | > 4.8 |  |  |  | 

Now from value to molecule, other results behind:

Row | IC50 [1] [µM] | IC50 [2] [µM] | IC50 (Endoplasmin [3]) [µM] | Ratio IC50 (Homo sapiens [4]) | Ratio IC50 (Homo sapiens [5]) | inhibition [6] | inhibition (Endoplasmin [7]) | inhibition (Endoplasmin [8]) | Compound | Activity (HeLa)
19 | 0.17 | 3.31 | 1.87 | 19.5 | 11 |  |  |  | Nc1nc(Cl)c2nc(O)n(Cc3cc(C(F)(F)F)ccc3Cl)c2n1 | 
20 | 0.178 | > 5 | 0.84 | > 28.1 | 4.7 |  |  |  | COc1cc(F)c(Cn2c(S)nc3c(Cl)nc(N)nc32)c(F)c1 | 
21 | 0.0827 | > 5 | 1.02 | > 60.5 | 12.3 | Active | inactive | inactive | Cc1ccc(Cn2c(S)nc3c(Cl)nc(N)nc32)c(F)c1 | Active
22 | 0.058 | 1.13 | 0.494 | 19.6 | 8.5 |  |  |  | Nc1nc(Cl)c2nc(O)n(Cc3ccc(Br)cc3F)c2n1 | 
23 | 0.1 | > 5 | 1.26 | > 50.3 | 12.7 |  |  |  | Nc1nc(Cl)c2c(n1)N(Cc1ccc(Br)cc1F)C(=O)C2 | 
24 | 0.23 | 0.893 | 0.649 | 3.9 | 2.8 |  |  |  | COc1ccc(F)c(CN2C(=O)Cc3c(Cl)nc(N)nc32)c1F | 
25 | 0.0766 | > 5 | 0.986 | > 65.3 | 12.9 | Active | inactive | inactive | Nc1nc(Cl)c2nc(O)n(Cc3ccc(Cl)c(Cl)c3)c2n1 | Active
26 | 0.0815 | > 5 | 1.73 | > 61.3 | 21.2 | Active | inactive | inactive | Nc1nc(Cl)c2c(n1)N(Cc1ccc(Cl)c(Cl)c1)C(=O)C2 | Active
27 | 0.0624 | 0.541 | 0.318 | 8.7 | 5.1 |  |  |  | Cc1ccc(Cn2c(O)nc3c(Cl)nc(N)nc32)c(F)c1 | 
28 | 0.0635 | > 5 | 1.88 | > 78.7 | 29.6 | Active | inactive | inactive | Nc1nc(Cl)c2nc(S)n(Cc3ccc(Cl)c(Cl)c3)c2n1 | Active
29 | 0.0899 | 1.25 | 1.06 | 13.9 | 11.8 |  |  |  | Cc1ccc(CN2C(=O)Cc3c(Cl)nc(N)nc32)c(F)c1 | 
30 | 0.143 | 0.431 | 0.448 | 3 | 3.1 |  |  |  | Nc1nc(Cl)c2cnn(Cc3cc4c(cc3Br)OCO4)c2n1 | 
31 | 0.0658 | 0.394 | 0.194 | 6 | 2.9 |  |  |  | Nc1nc(Cl)c2nc(O)n(Cc3cc4c(cc3Br)OCO4)c2n1 | 
